For test [1], the system named is hemoglobin or ferritin-related stores. The following applies: cited from earlier work.
For test [2] the test system is unchanged. The following applies: given in early stage of iron deficiency (ferritin below 100 ug/L or transferrin saturation below 20%).

Here are results for one substance from patent US5624668A (Luitpold Pharmaceuticals, Inc., priority 1995, dated 1997).

Consider iron dextran, for which the “quantitative iron utilization for hemoglobin or ferritin-related stores” value in test [1] (dialysis-associated anemia, within the first 90 days after infusion, previous retrospective analysis) was “highly variable and incomplete within the first 90 days”. Besides, the “recovery of iron for hemoglobin synthesis or iron stores” value in test [1] (iron deficiency anemia and normal renal function, early after intravenous infusion) is listed as “incomplete”. In test [2], the hemoglobin response result is listed as “without a concomitant increase in hemoglobin” and the serum ferritin response entry is reported as “rise in serum ferritin”.
